# Source: ChEMBL document CHEMBL5143570, “Development of naringenin-O-carbamate derivatives as multi-target-directed liagnds for the treatment of Alzheimer's disease” (Bioorg Med Chem Lett, 2022)
# Calls of active or inactive are those of the source. No cut-off for these calls is given here.
# Legend:
# [1] = test system: HT-22; assay: Effect on tau protein expression in pRK5-GFP-Tau P301L plasmid transfected mouse HT-22 cells assessed as fluorescence intensity by measuring decrease in GFP level by western blot analysis; assay type: functional, cell-based; settings: dose 5-20 µM, DDE = dose-dependent effect
# [2] = test system: HT-22; assay: Effect on APP protein expression in pEGFP-N1-APP plasmid transfected mouse HT-22 cells assessed as fluorescence intensity by measuring decrease in GFP level incubated for 24 hrs by western blot analysis; assay type: functional, cell-based; settings: dose 5-20 µM, DDE = dose-dependent effect
# [3] = Cytotoxicity against mouse HT-22 cells assessed as reduction in cell viability by MTT assay; assay type: toxicity, cell-based
# [4] = test system: L02; assay: Cytotoxicity against human L02 cells assessed as decrease in cell viability measured upto 20 uM by MTT assay; assay type: toxicity, cell-based; settings: l02, 20 µM
# [5] = Inhibition of LPS-induced TNFalpha production in mouse BV-2 cells assessed as TNFalpha level at 5 uM by ELISA analysis relative to control; assay type: functional
# [6] = Metal chelating activity assessed as Al3+-compound complex formation by measuring maximum absorption wavelength shift in the presence of AlCl3 by UV-visible spectrometric analysis
# [7] = test system: PC-12; assay: Neuroprotective activity against H2O2-induced cytotoxicity in rat PC-12 cells assessed as increase in cell viability at 5 uM by MTT assay relative to control; assay type: functional
# [8] = Inhibition of LPS-induced TNFalpha production in mouse BV-2 cells assessed as TNFalpha level at 5 uM by ELISA analysis; assay type: functional
# [9] = species: Homo sapiens; assay: Selectivity index, ratio of IC50 for inhibition of human serum BuChE to IC50 for inhibition of human erythrocyte AChE
# [10] = test system: L02; assay: Cytotoxicity against human L02 cells assessed as decrease in cell viability at 40 uM by MTT assay relative to control; assay type: toxicity, cell-based; settings: l02, 40 µM
# [11] = Antioxidant activity assessed as trolox equivalent of ORAC radical scavenging activity by ORAC-FL assay; assay type: functional
# [12] = Effect on tau protein expression in pRK5-GFP-Tau P301L plasmid transfected mouse HT-22 cells assessed as reduction in fluorescence intensity at 5 uM by fluorescence microscopic analysis (reference value: 35.0); assay type: functional
# [13] = biological target: T1, Acetylcholinesterase (Homo sapiens, UniProt P22303); assay: Pseudo-irreversible inhibition of human AChE assessed as restoration of enzyme activity at 0.1 time of IC50 concentration incubated for 120 mins by dilution method relative to control; parameters: scale not given: the % may be the effect or the level left
# T1 sequence (P22303 whole entry): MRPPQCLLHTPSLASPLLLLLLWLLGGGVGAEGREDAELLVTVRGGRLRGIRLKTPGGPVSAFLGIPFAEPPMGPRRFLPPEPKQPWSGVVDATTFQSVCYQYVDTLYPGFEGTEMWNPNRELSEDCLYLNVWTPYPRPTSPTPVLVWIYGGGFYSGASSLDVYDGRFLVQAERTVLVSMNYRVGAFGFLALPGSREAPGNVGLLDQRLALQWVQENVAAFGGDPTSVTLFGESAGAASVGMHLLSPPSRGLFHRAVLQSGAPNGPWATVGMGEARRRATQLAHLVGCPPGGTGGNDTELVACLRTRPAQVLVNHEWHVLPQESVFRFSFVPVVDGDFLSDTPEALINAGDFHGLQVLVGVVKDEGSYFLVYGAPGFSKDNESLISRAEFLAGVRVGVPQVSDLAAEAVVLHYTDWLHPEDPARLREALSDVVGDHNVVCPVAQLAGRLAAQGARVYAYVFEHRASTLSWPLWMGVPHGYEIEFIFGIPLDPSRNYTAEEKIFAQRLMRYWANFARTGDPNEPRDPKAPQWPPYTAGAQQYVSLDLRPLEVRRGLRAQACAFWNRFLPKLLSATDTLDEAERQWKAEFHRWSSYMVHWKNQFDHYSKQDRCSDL
# [14] = Inhibition of LPS-induced TNFalpha production in mouse BV-2 cells assessed as TNFalpha level at 10 uM by ELISA analysis; assay type: functional
# [15] = Metal chelating activity assessed as Cu2+-compound complex formation by measuring maximum absorption wavelength shift in the presence of CuCl2 by UV-visible spectrometric analysis
# [16] = biological target: Amyloid-beta precursor protein (Homo sapiens) (UniProt P05067); assay: Inhibition of amyloid beta (1 to 42) (unknown origin) self-induced fibril formation at 25 uM incubated for 24 hrs by transmission electron microscopic analysis
# Sequence of Amyloid-beta precursor protein (Homo sapiens) (P05067 whole entry): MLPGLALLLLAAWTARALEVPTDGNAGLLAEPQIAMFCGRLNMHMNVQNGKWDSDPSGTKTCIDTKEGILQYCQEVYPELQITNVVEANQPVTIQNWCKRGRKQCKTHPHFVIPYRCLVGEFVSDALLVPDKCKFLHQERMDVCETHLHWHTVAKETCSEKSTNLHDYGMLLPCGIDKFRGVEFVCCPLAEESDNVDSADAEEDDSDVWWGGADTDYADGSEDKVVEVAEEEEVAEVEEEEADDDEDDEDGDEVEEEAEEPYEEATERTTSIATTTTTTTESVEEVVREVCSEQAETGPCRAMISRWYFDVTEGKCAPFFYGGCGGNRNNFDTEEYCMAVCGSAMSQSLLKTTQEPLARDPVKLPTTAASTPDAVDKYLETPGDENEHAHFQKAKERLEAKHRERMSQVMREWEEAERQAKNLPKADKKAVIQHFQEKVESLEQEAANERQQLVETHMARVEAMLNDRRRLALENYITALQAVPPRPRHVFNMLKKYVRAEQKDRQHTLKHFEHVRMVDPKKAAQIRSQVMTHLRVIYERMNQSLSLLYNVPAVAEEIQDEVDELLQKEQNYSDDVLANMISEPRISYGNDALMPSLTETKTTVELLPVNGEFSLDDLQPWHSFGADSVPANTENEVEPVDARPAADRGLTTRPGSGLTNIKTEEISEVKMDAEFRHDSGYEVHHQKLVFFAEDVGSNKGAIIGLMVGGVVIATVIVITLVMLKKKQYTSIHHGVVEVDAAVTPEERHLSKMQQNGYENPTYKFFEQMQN
# [17] = biological target: Amyloid-beta precursor protein (Homo sapiens) (UniProt P05067); assay: Inhibition of amyloid beta (1 to 42 ) (unknown origin) self-induced aggregation at 25 uM by thioflavin-T fluorescence method relative to control
# [18] = Inhibition of LPS-induced TNFalpha production in mouse BV-2 cells assessed as TNFalpha level at 10 uM by ELISA analysis relative to control; assay type: functional
# [19] = biological target: Amyloid-beta precursor protein (Homo sapiens) (UniProt P05067); assay: Disaggregation of Cu2+-induced amyloid beta (1 to 42) (unknown origin) aggregation at 25 uM by thioflavin-T fluorescence method relative to control
# [20] = species: Rattus norvegicus; assay: Selectivity index, ratio of IC50 for inhibition of rat serum butyrylcholine esterase to IC50 for inhibition of rat cortex AChE
# [21] = test system: PC-12; assay: Cytotoxicity against rat PC-12 cells assessed as reduction in cell viability measured upto 40 uM incubated for 72 hrs by MTT assay; assay type: toxicity, cell-based; settings: pc-12, 72 h
# [22] = Effect on tau protein expression in pRK5-GFP-Tau plasmid transfected mouse HT-22 cells assessed as reduction in fluorescence intensity at 5 uM incubated for 24 hrs by fluorescence microscopic analysis (reference value: 36.8); assay type: functional
# [23] = Effect on tau protein expression in pRK5-GFP-Tau plasmid transfected mouse HT-22 cells assessed as reduction in fluorescence intensity at 20 uM incubated for 24 hrs by fluorescence microscopic analysis (reference value: 36.8); assay type: functional
# [24] = Inhibition of LPS-induced NO production in mouse BV-2 cells at 10 uM by Griess reaction method relative to control; assay type: functional
# [25] = biological target: Cholinesterase (Homo sapiens, UniProt P06276); assay: Inhibition of human serum BuChE using butyrylthiocholine as substrate incubated for 15 mins by DTNB reagent based Ellman's method; assay type: cell-free
# Sequence of Cholinesterase (P06276 whole entry): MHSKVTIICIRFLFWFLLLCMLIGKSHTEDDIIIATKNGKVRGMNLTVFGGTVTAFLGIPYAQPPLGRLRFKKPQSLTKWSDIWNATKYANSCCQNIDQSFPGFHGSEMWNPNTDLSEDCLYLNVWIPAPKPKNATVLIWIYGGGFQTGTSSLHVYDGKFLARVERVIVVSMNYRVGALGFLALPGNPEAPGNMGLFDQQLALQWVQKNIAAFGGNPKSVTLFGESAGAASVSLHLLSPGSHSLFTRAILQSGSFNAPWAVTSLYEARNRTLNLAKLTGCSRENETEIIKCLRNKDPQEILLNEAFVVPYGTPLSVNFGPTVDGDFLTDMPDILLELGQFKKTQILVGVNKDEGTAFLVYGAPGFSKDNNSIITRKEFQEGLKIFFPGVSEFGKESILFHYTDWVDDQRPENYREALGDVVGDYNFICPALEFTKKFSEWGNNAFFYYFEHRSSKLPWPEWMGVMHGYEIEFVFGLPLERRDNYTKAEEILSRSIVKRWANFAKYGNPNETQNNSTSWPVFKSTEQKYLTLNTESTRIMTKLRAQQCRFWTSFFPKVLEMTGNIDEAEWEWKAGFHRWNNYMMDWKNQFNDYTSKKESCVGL
# [26] = test system: L02; assay: Hepatoprotective activity against H2O2-induced cytotoxicity in human L02 cells assessed as increase in cell viability at 10 uM by MTT assay; assay type: functional
# [27] = test system: BV-2; assay: Cytotoxicity against mouse BV-2 cells assessed as increase in cell viability at 5 to 10 uM by MTT assay; assay type: toxicity, cell-based; settings: bv-2, 10 µM, dose 5-10 µM
# [28] = Inhibition of LPS-induced NO production in mouse BV-2 cells at 5 uM by Griess reaction method relative to control; assay type: functional
# [29] = Effect on APP protein expression in pEGFP-N1-APP plasmid transfected mouse HT-22 cells assessed as decrease in fluorescence intensity at 10 uM incubated for 24 hrs by fluorescence microscopic analysis (reference value: 30.7); assay type: functional
# [30] = biological target: T1, Acetylcholinesterase; assay: Inhibition of human erythrocyte AChE using acetylthiocholine as substrate incubated for 15 mins by DTNB reagent based Ellman's method; assay type: cell-based
# [31] = Effect on APP protein expression in pEGFP-N1-APP plasmid transfected mouse HT-22 cells assessed as decrease in fluorescence intensity at 5 uM incubated for 24 hrs by fluorescence microscopic analysis (reference value: 30.7); assay type: functional
# [32] = test system: HT-22; assay: Effect on tau protein expression in pRK5-GFP-Tau plasmid transfected mouse HT-22 cells assessed as fluorescence intensity by measuring decrease in GFP level incubated for 24 hrs by western blot analysis; assay type: functional, cell-based; settings: dose 5-20 µM, DDE = dose-dependent effect
# [33] = test system: PC-12; assay: Neuroprotective activity against H2O2-induced cytotoxicity in rat PC-12 cells assessed as increase in cell viability at 10 uM by MTT assay relative to control; assay type: functional
# [34] = biological target: Butyrylcholinesterase (Rattus norvegicus, UniProt Q9JKC1); assay: Inhibition of rat serum Butyrylcholine esterase using butyrylthiocholine as substrate incubated for 15 mins by DTNB reagent based Ellman's method; assay type: cell-free
# Sequence of Butyrylcholinesterase (Q9JKC1 whole entry): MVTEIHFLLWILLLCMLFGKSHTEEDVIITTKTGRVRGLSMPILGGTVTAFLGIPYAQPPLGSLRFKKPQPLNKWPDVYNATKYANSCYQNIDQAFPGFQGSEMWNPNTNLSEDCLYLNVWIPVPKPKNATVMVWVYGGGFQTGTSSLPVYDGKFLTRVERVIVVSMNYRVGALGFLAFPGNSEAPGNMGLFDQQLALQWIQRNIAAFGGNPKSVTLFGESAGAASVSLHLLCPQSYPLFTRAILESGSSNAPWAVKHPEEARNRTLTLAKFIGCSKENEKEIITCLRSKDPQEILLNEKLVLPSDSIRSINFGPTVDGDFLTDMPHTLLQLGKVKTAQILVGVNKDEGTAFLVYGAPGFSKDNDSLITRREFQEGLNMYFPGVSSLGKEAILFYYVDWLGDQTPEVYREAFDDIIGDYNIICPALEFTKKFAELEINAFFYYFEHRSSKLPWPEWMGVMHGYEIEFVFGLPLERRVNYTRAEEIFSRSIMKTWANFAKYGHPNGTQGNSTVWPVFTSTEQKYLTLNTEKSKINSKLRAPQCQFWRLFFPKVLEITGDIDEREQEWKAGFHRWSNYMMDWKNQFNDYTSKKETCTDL
# [35] = Effect on tau protein expression in pRK5-GFP-Tau P301L plasmid transfected mouse HT-22 cells assessed as reduction in fluorescence intensity at 20 uM by fluorescence microscopic analysis (reference value: 35.0); assay type: functional
# [36] = Effect on tau protein expression in pRK5-GFP-Tau P301L plasmid transfected mouse HT-22 cells assessed as reduction in fluorescence intensity at 10 uM by fluorescence microscopic analysis (reference value: 35.0); assay type: functional
# [37] = Effect on tau protein expression in pRK5-GFP-Tau plasmid transfected mouse HT-22 cells assessed as reduction in fluorescence intensity at 10 uM incubated for 24 hrs by fluorescence microscopic analysis (reference value: 36.8); assay type: functional
compound,measurement,setting,value
CCN(C)C(=O)Oc1ccc(C2CC(=O)c3c(O)cc(OC(=O)N(C)CC)cc3O2)cc1 (configuration not stated),Activity,[1],Dde
same,Activity,[2],Dde
same,IC50,[3],289 µM
same,Activity,[4],Non-Toxic
same,inhibition at 5 µM,[5],50.1%
same,Activity,[6],Active
same,Activity,[7],63.8%
same,Activity,[8],848 pg/mL
same,Ratio IC50,[9],2.1
same,Activity,[10],73.2%
same,Activity,[11],1
same,Flu intensity,[12],18.4
same,Activity,[13],81.7%
same,Activity,[14],532 pg/mL
same,Activity,[15],Active
same,inhibition,[16],Active
same,inhibition,[17],60.9%
same,inhibition at 10 µM,[18],68.7%
same,Activity,[19],54.4%
same,Ratio IC50,[20],4.9
same,Activity,[21],Non-Toxic
same,Flu intensity,[22],25.9
same,Flu intensity,[23],6.48
same,inhibition at 10 µM,[24],55.6%
same,IC50,[25],20.3 µM
same,Activity,[26],68.7%
same,Activity,[27],Non-Toxic
same,inhibition at 5 µM,[28],41.7%
same,Flu intensity,[29],15.5
same,IC50,[30],9.7 µM
same,Flu intensity,[31],21.9
same,Activity,[32],Dde
same,Activity,[33],70.2%
same,IC50,[34],30.6 µM
same,Flu intensity,[35],3.88
same,Flu intensity,[36],9.28
same,Flu intensity,[37],19
